pIC50: −log10 of the molar value. Where a name gives a salt, the structure may show the parent alone.
What was measured:
Format in all cases: biochemical
[1] = molecular target: T1, EcoLRS (leucyl-tRNA synthetase from Escherichia coli) (Escherichia coli, UniProt P07813); experiment: aaRS aminoacylation assay (ATP consumption), EcoLRS
T1 construct: made in house; host or cells: Escherichia coli M15
Description: (§1) The compounds have been tested for antibacterial activity in vitro as aminoacyl-tRNA synthetases (aaRS) inhibitors following the following process.
(§2) Leucyl-, valyl- and isoleucyl-tRNA synthetases (LRS, VRS and IRS, respectively) from Escherichia coli (Eco) and Staphylococcus aureus (Sau).
(§3) Escherichia coli M15 cells transformed with plasmid pQE-60, or pQE-70, containing the open-reading frame sequence of one targeted aaRS were induced with 1 mM IPTG (Isopropyl β-D-1-thiogalactopyranoside) for 3 h at 37° C. Bacterial cells were harvested and lysed with 20 mM NaH2PO4 (pH 8.0), 200 mM NaCl, 10 mM imidazole and protease inhibitor cocktail (Roche). Pathogenic aaRS was purified by nickel affinity standard chromatography. Protein concentration was determined by spectrophotometry.
(§4) tRNA^Leu, tRNA^Val and tRNA^Ile from E. coli and S. aureus were transcribed in vitro for 4 h at 37° C. using T7 RNA polymerase. Transcription reaction contained 40 mM Tris-HCl (pH 8.0), 22 mM MgCl2, 1 mM spermidine, 5 mM DTT, 0.01% Triton X-100, 4 mM GTP, 4 mM ATP, 4 mM UTP, 4 mM CTP, 16 mM GMP, […] T7 RNA polymerase and 150 μg BstNI digested plasmid. Once finished, the reaction was applied on a 6% polyacrylamide-8 M urea denaturing gel to purify the transcribed tRNA and discard any impurities. Purified tRNA was quantified with Nanodrop 2000 (Thermo Scientific).
(§5) The aminoacylation reaction catalyzed by aminoacyl-tRNA synthetases (aaRS) takes place in two steps. In the first step, aaRS activates its cognate amino acid with ATP; and in the second step the activated amino acid is loaded to its corresponding tRNA. This reaction can be summarized as follows: ARS+aa+ATP=ARS-aa-AMP+PPi ARS-aa-AMP+tRNA=aa-tRNA+AMP+ARS [2] (ARS, Aminoacyl-tRNA synthetase; aa, amino acid; ARS-aa-AMP, enzyme-bound to aminoacyl-adenylate; aa-tRNA, aminoacyl-tRNA).
(§6) The activity of the pathogenic aaRSs was monitored by measuring the ATP consumption rate, since this consumption is directly proportional to the activity of the aaRS. If the tested compound, at a single point concentration of 50 μM, is inhibiting the aminoacylation reaction, there is a decrease in the ATP consumption, compared to the control reaction without compound, allowing the calculation of an inhibition ratio.
(§7) When the inhibition ratio for a given compound was above 80%, IC50 determination was performed with the same enzymatic assay (using the commercial kit Kinase RR from BioThema AB, Sweden) in the presence of serial dilutions of inhibitor. Known inhibitors of LRS, VRS or IRS were used as a positive control of the assay. The IC50 was calculated based on nonlinear regression analysis.

[2] = molecular target: T2, EcoIRS (isoleucyl-tRNA synthetase from Escherichia coli) (Escherichia coli, UniProt P00956); experiment: aaRS aminoacylation assay (ATP consumption), EcoIRS; conditions: i.a. = inactive at a concentration below 50 uM
T2 construct: made in house; host or cells: Escherichia coli M15
T2 sequence (P00956 whole entry): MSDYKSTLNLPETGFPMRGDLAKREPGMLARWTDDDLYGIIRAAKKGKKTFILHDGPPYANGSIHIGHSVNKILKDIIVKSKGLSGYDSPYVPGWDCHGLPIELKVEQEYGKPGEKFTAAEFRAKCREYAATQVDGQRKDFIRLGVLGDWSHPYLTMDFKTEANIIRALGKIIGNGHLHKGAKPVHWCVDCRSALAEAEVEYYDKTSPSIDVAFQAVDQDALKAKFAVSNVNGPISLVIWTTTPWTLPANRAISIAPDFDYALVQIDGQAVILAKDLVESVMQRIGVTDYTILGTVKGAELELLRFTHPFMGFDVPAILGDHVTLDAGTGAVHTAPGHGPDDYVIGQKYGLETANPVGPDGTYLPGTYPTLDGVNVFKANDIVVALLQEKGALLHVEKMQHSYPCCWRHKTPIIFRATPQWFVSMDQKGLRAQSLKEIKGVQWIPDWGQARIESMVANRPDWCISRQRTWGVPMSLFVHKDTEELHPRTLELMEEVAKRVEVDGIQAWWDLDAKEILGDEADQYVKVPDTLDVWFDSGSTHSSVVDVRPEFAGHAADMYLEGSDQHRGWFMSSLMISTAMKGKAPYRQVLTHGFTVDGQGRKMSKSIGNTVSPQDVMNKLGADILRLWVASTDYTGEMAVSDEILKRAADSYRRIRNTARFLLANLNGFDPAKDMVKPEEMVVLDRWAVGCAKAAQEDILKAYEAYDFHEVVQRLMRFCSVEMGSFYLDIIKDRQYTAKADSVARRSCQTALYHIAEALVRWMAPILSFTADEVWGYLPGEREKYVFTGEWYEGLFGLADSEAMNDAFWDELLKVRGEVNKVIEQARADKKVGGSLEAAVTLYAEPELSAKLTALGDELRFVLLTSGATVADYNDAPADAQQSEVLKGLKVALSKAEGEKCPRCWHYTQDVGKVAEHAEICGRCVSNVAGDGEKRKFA
Description: as §1, §2, §3, §4, §5, §6, §7

[3] = molecular target: T3, EcoVRS (valyl-tRNA synthetase from Escherichia coli) (Escherichia coli, UniProt P07118); experiment: aaRS aminoacylation assay (ATP consumption), EcoVRS; conditions: i.a. = inactive at a concentration below 50 uM
T3 construct: made in house; host or cells: Escherichia coli M15
T3 sequence (P07118 whole entry): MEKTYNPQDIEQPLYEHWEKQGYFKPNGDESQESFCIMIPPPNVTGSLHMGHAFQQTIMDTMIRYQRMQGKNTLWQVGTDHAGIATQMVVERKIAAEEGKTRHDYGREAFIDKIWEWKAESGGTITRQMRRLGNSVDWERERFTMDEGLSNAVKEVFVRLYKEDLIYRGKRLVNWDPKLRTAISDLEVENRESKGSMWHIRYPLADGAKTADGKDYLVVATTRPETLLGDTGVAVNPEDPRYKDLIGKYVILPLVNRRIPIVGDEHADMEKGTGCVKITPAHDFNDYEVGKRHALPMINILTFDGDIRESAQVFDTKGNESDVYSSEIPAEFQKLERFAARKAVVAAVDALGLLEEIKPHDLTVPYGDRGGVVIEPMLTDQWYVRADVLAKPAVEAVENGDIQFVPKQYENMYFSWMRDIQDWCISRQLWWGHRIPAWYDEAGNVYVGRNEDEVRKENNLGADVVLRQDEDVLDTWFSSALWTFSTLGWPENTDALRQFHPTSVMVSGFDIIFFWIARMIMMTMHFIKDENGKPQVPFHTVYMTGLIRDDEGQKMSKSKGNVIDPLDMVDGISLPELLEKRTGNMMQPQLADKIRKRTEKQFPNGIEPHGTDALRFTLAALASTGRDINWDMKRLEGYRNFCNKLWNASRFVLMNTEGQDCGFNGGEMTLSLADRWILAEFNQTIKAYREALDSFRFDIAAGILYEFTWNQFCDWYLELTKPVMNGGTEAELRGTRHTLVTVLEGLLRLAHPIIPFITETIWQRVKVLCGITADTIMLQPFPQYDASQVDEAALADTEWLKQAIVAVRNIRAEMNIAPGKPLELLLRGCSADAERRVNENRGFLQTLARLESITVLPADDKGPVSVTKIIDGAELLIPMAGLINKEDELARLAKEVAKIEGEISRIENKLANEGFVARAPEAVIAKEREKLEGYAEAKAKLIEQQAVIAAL
Description: as §1, §2, §3, §4, §5, §6, §7

[4] = molecular target: T4, SauVRS (valyl-tRNA synthetase from Staphylococcus aureus) (Staphylococcus aureus, UniProt Q2FXR8); experiment: aaRS aminoacylation assay (ATP consumption), SauVRS; conditions: i.a. = inactive at a concentration below 50 uM
T4 construct: made in house; host or cells: Escherichia coli M15
T4 sequence (Q2FXR8 1-876): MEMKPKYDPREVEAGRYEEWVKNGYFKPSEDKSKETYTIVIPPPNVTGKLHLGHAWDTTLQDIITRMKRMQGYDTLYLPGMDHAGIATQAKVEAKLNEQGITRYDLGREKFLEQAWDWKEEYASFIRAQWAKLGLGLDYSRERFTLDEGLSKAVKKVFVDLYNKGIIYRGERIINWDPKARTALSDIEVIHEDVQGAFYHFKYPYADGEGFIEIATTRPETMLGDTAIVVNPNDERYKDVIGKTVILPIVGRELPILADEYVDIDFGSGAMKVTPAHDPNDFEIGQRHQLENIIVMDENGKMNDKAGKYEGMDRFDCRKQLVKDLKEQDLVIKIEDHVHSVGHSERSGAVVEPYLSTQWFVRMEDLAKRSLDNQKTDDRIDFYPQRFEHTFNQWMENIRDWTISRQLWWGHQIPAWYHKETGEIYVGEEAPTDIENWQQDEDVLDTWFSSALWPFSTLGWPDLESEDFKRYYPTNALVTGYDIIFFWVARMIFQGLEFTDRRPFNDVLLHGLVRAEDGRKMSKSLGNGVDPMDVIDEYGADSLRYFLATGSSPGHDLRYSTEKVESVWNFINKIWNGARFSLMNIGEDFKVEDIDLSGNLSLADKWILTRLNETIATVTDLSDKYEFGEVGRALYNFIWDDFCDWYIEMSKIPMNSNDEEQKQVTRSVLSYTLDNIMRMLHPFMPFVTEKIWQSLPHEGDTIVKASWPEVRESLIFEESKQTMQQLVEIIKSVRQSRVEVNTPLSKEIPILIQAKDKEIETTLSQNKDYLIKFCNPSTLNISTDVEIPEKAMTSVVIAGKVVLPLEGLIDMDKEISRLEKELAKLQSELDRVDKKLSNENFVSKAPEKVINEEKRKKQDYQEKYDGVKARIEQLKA
Description: as §1, §2, §3, §4, §5, §6, §7

T1 sequence (P07813 whole entry): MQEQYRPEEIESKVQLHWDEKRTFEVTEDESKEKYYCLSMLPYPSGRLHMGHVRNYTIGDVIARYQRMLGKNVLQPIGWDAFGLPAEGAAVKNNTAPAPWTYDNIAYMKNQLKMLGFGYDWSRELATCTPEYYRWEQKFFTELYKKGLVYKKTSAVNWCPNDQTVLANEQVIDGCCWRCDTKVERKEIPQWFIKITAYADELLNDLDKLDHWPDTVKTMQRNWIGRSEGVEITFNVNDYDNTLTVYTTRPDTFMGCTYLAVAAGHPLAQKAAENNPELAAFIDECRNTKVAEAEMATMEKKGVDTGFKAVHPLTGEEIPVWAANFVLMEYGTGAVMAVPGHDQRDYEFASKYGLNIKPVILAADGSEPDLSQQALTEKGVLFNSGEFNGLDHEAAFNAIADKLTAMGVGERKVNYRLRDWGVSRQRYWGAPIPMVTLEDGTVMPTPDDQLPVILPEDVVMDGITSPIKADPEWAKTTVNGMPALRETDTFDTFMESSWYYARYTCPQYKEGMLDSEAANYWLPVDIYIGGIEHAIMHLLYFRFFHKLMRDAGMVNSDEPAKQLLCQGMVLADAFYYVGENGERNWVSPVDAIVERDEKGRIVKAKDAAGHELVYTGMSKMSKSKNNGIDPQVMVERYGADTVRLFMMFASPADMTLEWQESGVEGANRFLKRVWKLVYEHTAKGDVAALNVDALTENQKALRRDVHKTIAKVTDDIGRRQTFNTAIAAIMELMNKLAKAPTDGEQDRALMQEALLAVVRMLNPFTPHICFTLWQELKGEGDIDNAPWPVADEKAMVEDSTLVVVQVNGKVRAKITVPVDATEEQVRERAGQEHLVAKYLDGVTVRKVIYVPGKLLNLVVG

Row | Structure (SMILES) | pIC50 [1] | IC50 EcoIRS [2] | IC50 EcoVRS [3] | IC50 SauVRS [4] | IC50 EcoLRS ([1]; i.a. = inactive at a concentration below 50 uM)
1 | CC(C)C[C@H](N)C(=O)NS(=O)(=O)c1cccc2cc(C(N)=O)ncc12 [Compound 5.24, 8-(N-(L-Leucyl)sulfamoyl)isoquinoline-3-carboxamide] | 7.96 | i.a | i.a | i.a | 
2 | CC(C)C[C@H](N)C(=O)NS(=O)(=O)c1ccc(-c2ccccc2)cc1 [Compound 5.11] | 4.56 | i.a | i.a | i.a | 
3 | N[C@@H](CC1CC1)C(=O)NS(=O)(=O)c1cccc(-c2ccccc2)c1 (racemic) [Compound 5.10] | 4.32 | i.a | i.a | i.a | 
4 | CC(C)C[C@H](N)C(=O)NS(=O)(=O)c1c(C(C)C)cc(C(C)C)cc1C(C)C [Compound 5.12] | 4.49 | i.a | i.a | i.a | 
5 | CC(C)C[C@H](N)C(=O)NS(=O)(=O)c1ccccc1-c1ccccc1 [Compound 5.3] | 6.80 | i.a | i.a | i.a | 
6 | CC(C)C[C@H](N)C(=O)NS(=O)(=O)c1cccc2ccncc12 [Compound 5.21] | 6.32 | i.a | i.a | i.a | 
7 | Cc1cc(-c2cccc(S(=O)(=O)NC(=O)[C@@H](N)CC3CC3)c2)nc(N)n1 [Compound 5.30] | 4.85 | i.a | i.a | i.a | 
8 | CC(C)C[C@H](N)C(=O)NS(=O)(=O)c1ccc(Br)c2ccncc12 [Compound 5.22, trifluoroacetate] | 5.62 | i.a | i.a | i.a | 
9 | CCCCc1ccc(S(=O)(=O)NC(=O)[C@@H](N)CC(C)C)cc1 [Compound 5.7] | 6.18 | i.a | i.a | i.a | 
10 | CC(C)C[C@H](N)C(=O)NS(=O)(=O)c1ccccc1Cl [Compound 5.5] | 6.92 | i.a | i.a | i.a | 
11 | CC(C)C[C@H](N)C(=O)NS(=O)(=O)c1cccc(-c2cc(N(C)C)nc(N)n2)c1 [Compound 5.28] | 5.80 | i.a | i.a | i.a | 
12 | CC[C@H](C)[C@H](N)C(=O)NS(=O)(=O)c1ccc2ccccc2c1 [Compound 5.15] |  | i.a | i.a | i.a | i.a
13 | CNc1cc(-c2cccc(S(=O)(=O)NC(=O)[C@@H](N)CC(C)C)c2)nc(N)n1 [Compound 5.27] | 7.29 | i.a | i.a | i.a | 
14 | CC(C)C[C@H](N)C(=O)NS(=O)(=O)c1ccc(Oc2ccccc2)cc1 [Compound 5.2] | 6.15 | i.a | i.a | i.a | 
15 | CSc1cc(-c2cccc(S(=O)(=O)NC(=O)[C@@H](N)CC(C)C)c2)nc(N)n1 [Compound 5.29] | 7.68 | i.a | i.a | i.a | 
16 | CC(C)C[C@H](N)C(=O)NS(=O)(=O)c1cccc2cccnc12 [Compound 5.19] | 6.11 | i.a | i.a | i.a | 

Source: patent US11072581B2, “N-acyl-arylsulfonamide derivatives as aminoacyl-tRNA synthetase inhibitors” (Oxford Drug Design Limited, priority 2015, dated 2021)
